Results taken from ChEMBL document CHEMBL1156451 (J Biol Chem, 2007).
Converted amounts (≈) assume the structure as drawn. The source made the active and inactive calls. No cut-off for these calls is given here. Where a SMILES comes first, the peptide text is derived from it.

Assays:
[1] = tested on: Pseudomonas aeruginosa; experiment: Antibacterial activity against Pseudomonas aeruginosa CUN 4158-02 after 24 hrs in Mueller-Hinton broth medium; format: functional
[2] = tested on: Escherichia coli; experiment: Antibacterial activity against Escherichia coli K12 ATCC 23716 in 10% Luria-Bertani medium/90% Hepes buffer at pH 7.0; format: functional
[3] = tested on: Brucella abortus; experiment: Antibacterial activity against Brucella abortus 9.49 (per-) after 48 hrs in Mueller-Hinton broth medium; format: functional
[4] = tested on: Acinetobacter baumannii; experiment: Antibacterial activity against Acinetobacter baumannii ATCC 19606 after 24 hrs in Mueller-Hinton broth medium; format: functional
[5] = Toxicity in human erythrocytes assessed as hemolysis at 100 ug/ml; format: cell-based, Erythrocyte; settings: read-out: Activity
[6] = tested on: Brucella abortus; experiment: Antibacterial activity against Brucella abortus 9.19 (per-) after 24 hrs in Mueller-Hinton broth medium; format: functional
[7] = tested on: Escherichia coli; experiment: Antibacterial activity against Escherichia coli ATCC 25922 after 24 hrs in Mueller-Hinton broth medium; format: functional
[8] = tested on: Bordetella bronchiseptica; experiment: Antibacterial activity against Bordetella bronchiseptica CUN 11844-99 after 24 hrs in Mueller-Hinton broth medium; format: functional
[9] = tested on: Staphylococcus aureus; experiment: Antibacterial activity against methicillin-resistant Staphylococcus aureus ATCC 43300 after 24 hrs in Mueller-Hinton broth medium; format: functional
[10] = tested on: HeLa; experiment: Cytotoxicity against human HeLa cells at 100 ug/ml after 24 hrs by MTT assay relative to control; format: functional
[11] = tested on: Escherichia coli; experiment: Antibacterial activity against Escherichia coli K12 ATCC 23716 after 24 hrs in Mueller-Hinton broth medium; format: functional

Molecule | MBC [1] [µg/mL] | MIC [1] [µg/mL] | MBC [2] [µg/mL] | MIC [2] [µg/mL] | MIC [3] [µg/mL] | MBC ([4]; ATCC 19606, 24 h) [µg/mL] | MIC ([4]; ATCC 19606, 24 h) [µg/mL] | hemolysis at 100 ug/ml [5] [%] | MBC [6] [µg/mL] | MBC ([7]; ATCC 25922, 24 h) [µg/mL] | MIC ([7]; ATCC 25922, 24 h) [µg/mL] | MBC [8] [µg/mL] | MIC [8] [µg/mL] | MBC ([9]; ATCC 43300, 24 h) [µg/mL] | MIC ([9]; ATCC 43300, 24 h) [µg/mL] | Activity [10] | MBC ([11]; K12, 24 h) [µg/mL] | MIC ([11]; K12, 24 h) [µg/mL] | further results
CC[C@H](C)[C@H](NC(=O)[C@H](CCCCN)NC(=O)[C@H](CCCCN)NC(=O)[C@H](CO)NC(=O)[C@@H](NC(=O)CNC(=O)[C@H](CCCNC(=N)N)NC(=O)[C@H](CC(C)C)NC(=O)[C@@H](NC(=O)[C@@H](N)CCCCN)[C@@H](C)CC)C(C)C)C(=O)N[C@@H](CCSC)C(=O)N[C@@H](CCCNC(=N)N)C(=O)N[C@@H](CCCNC(=N)N)C(=O)N[C@H](C(=O)N[C@@H](CO)C(=O)N[C@@H](CCCCN)C(=O)N[C@@H](CC(=O)O)C(=O)N[C@H](C(=O)N[C@@H](CC(C)C)C(=O)N[C@H](C(=O)NCC(=O)N[C@@H](CCCCN)C(=O)N[C@@H](CCCCN)C(N)=O)[C@@H](C)O)[C@@H](C)CC)[C@@H](C)CC (H-KILRGVSKKIMRRISKDILTGKK-NH2) | 16 (≈ 6 µM) | 16 (≈ 6 µM) | 25 (≈ 9.37 µM) | 12.5 (≈ 4.68 µM) | 4 (≈ 1.5 µM) | 8 (≈ 3 µM) | 8 (≈ 3 µM) | < 5 | > 128 | 64 (≈ 24 µM) | 16 (≈ 6 µM) | 1 (≈ 0.375 µM) | 1 (≈ 0.375 µM) | > 256 | > 256 | inactive | 16 (≈ 6 µM) | 16 (≈ 6 µM) | 
CC[C@H](C)[C@H](NC(=O)[C@H](CCCCN)NC(=O)[C@H](CCCCN)NC(=O)[C@H](CO)NC(=O)[C@@H](NC(=O)CNC(=O)[C@H](CCCNC(=N)N)NC(=O)[C@H](CC(C)C)NC(=O)[C@@H](NC(=O)[C@@H](N)CCCCN)[C@@H](C)CC)C(C)C)C(=O)N[C@@H](CCSC)C(=O)N[C@@H](CCCNC(=N)N)C(=O)N[C@@H](CCCNC(=N)N)C(=O)N[C@H](C(=O)N[C@@H](CC(C)C)C(=O)N[C@H](C(=O)NCC(=O)N[C@@H](CCCCN)C(=O)N[C@@H](CCCCN)C(N)=O)[C@@H](C)O)[C@@H](C)CC (H-KILRGVSKKIMRRILTGKK-NH2) | 32 (≈ 14.4 µM) | 32 (≈ 14.4 µM) | 32 (≈ 14.4 µM) | 16 (≈ 7.19 µM) | 64 (≈ 28.8 µM) | 2 (≈ 0.899 µM) | 2 (≈ 0.899 µM) | < 5 | 128 (≈ 57.5 µM) | 32 (≈ 14.4 µM) | 32 (≈ 14.4 µM) | 4 (≈ 1.8 µM) | 4 (≈ 1.8 µM) | > 256 | > 256 | inactive | 64 (≈ 28.8 µM) | 64 (≈ 28.8 µM) | 
CC[C@H](C)[C@H](NC(=O)[C@H](CCCNC(=N)N)NC(=O)[C@H](CCCCN)NC(=O)[C@H](CO)NC(=O)[C@@H](NC(=O)[C@@H](N)CCCCN)[C@@H](C)CC)C(=O)N[C@@H](CC(C)C)C(=O)N[C@H](C(=O)NCC(=O)N[C@@H](CCCCN)C(=O)N[C@@H](CCCCN)C(=O)O)[C@@H](C)O (H-KISKRILTGKK-OH) | > 256 | > 256 | > 200 | 200 (≈ 157 µM) | > 256 | > 256 | > 256 | < 5 | > 256 | > 256 | > 256 | > 256 | > 256 | > 256 | > 256 | inactive | > 256 | > 256 | 
POLYMYXIN B | 0.25 | 0.25 | 3.2 | 2.4 | 0.25 |  |  |  | 0.5 |  |  | 0.5 | 0.5 |  |  | inactive |  |  | MBC [4]: 0.5 µg/mL; MIC [4]: 0.5 µg/mL; MBC [7]: 0.5 µg/mL; MIC [7]: 0.5 µg/mL; MIC [9]: 32 µg/mL; MBC [11]: 0.125 µg/mL; MIC [11]: 0.125 µg/mL
CC[C@H](C)[C@H](NC(=O)[C@H](CCCNC(=N)N)NC(=O)[C@H](CCCCN)NC(=O)[C@H](CO)NC(=O)[C@@H](NC(=O)CNC(=O)[C@H](CC(C)C)NC(=O)[C@@H](NC(=O)[C@@H](N)CCCCN)[C@@H](C)CC)C(C)C)C(=O)N[C@@H](CC(C)C)C(=O)N[C@H](C(=O)NCC(=O)N[C@@H](CCCCN)C(=O)N[C@@H](CCCCN)C(N)=O)[C@@H](C)O (H-KILGVSKRILTGKK-NH2) | > 256 | > 256 | > 100 | 50 (≈ 32.5 µM) | > 128 | > 256 | > 256 | < 5 | > 12.8 | > 256 | > 256 | > 256 | 256 (≈ 166 µM) | > 256 | > 256 | inactive | > 256 | 256 (≈ 166 µM) | 
CC[C@H](C)[C@H](NC(=O)[C@H](CCCCN)NC(=O)[C@@H](N)CCCCN)C(=O)N[C@@H](CCSC)C(=O)N[C@@H](CCCNC(=N)N)C(=O)N[C@H](C(=O)N[C@@H](Cc1ccccc1)C(=O)N[C@@H](CC(C)C)C(=O)N[C@@H](CCCNC(=N)N)C(=O)N[C@@H](CCCNC(=N)N)C(N)=O)[C@@H](C)O (H-KKIMRTFLRR-NH2) | > 256 | > 256 | 50 (≈ 37.1 µM) | 25 (≈ 18.5 µM) | 128 (≈ 95 µM) | > 128 | > 128 | < 5 | < 256 | > 256 | 256 (≈ 190 µM) | > 256 | > 256 | > 256 | 256 (≈ 190 µM) | inactive | 256 (≈ 190 µM) | 256 (≈ 190 µM) | 
CC[C@H](C)[C@H](NC(=O)[C@H](CCCNC(=N)N)NC(=O)[C@H](CCCNC(=N)N)NC(=O)[C@H](CC(C)C)NC(=O)[C@H](Cc1ccccc1)NC(=O)[C@@H](NC(=O)[C@H](CCCNC(=N)N)NC(=O)[C@H](CCSC)NC(=O)[C@@H](NC(=O)[C@H](CCCCN)NC(=O)[C@@H](N)CCCCN)[C@@H](C)CC)[C@@H](C)O)C(=O)N[C@@H](CO)C(=O)N[C@@H](CCCCN)C(=O)N[C@@H](CCCCN)C(=O)N[C@H](C(=O)N[C@@H](CC(C)C)C(=O)N[C@H](C(=O)NCC(=O)N[C@@H](CCCCN)C(=O)N[C@@H](CCCCN)C(N)=O)[C@@H](C)O)[C@@H](C)CC (H-KKIMRTFLRRISKKILTGKK-NH2) | 128 (≈ 52.3 µM) | 32 (≈ 13.1 µM) | 32 (≈ 13.1 µM) | 16 (≈ 6.54 µM) | 4 (≈ 1.64 µM) | 8 (≈ 3.27 µM) | 8 (≈ 3.27 µM) | < 5 | 32 (≈ 13.1 µM) | 64 (≈ 26.2 µM) | 32 (≈ 13.1 µM) | 16 (≈ 6.54 µM) | 2 (≈ 0.818 µM) | 256 (≈ 105 µM) | 128 (≈ 52.3 µM) | inactive | 32 (≈ 13.1 µM) | 16 (≈ 6.54 µM) | 
CC[C@H](C)[C@H](NC(=O)[C@H](CCCCN)NC(=O)[C@H](CCCCN)NC(=O)[C@H](CO)NC(=O)[C@@H](NC(=O)CNC(=O)[C@H](CC(C)C)NC(=O)[C@@H](NC(=O)[C@@H](N)CCCCN)[C@@H](C)CC)C(C)C)C(=O)N[C@@H](CCSC)C(=O)N[C@@H](CCCNC(=N)N)C(=O)N[C@@H](CCCNC(=N)N)C(=O)N[C@H](C(=O)N[C@@H](CO)C(=O)N[C@@H](CCCCN)C(=O)N[C@@H](CC(=O)O)C(=O)N[C@H](C(=O)N[C@@H](CC(C)C)C(=O)N[C@H](C(=O)NCC(=O)N[C@@H](CCCCN)C(=O)N[C@@H](CCCCN)C(N)=O)[C@@H](C)O)[C@@H](C)CC)[C@@H](C)CC (H-KILGVSKKIMRRISKDILTGKK-NH2) | 64 (≈ 25.5 µM) | 32 (≈ 12.7 µM) | 12.5 (≈ 4.98 µM) | 6.25 (≈ 2.49 µM) | 16 (≈ 6.37 µM) | 16 (≈ 6.37 µM) | 16 (≈ 6.37 µM) | < 5 | > 256 | 32 (≈ 12.7 µM) | 32 (≈ 12.7 µM) | 2 (≈ 0.796 µM) | 2 (≈ 0.796 µM) | > 256 | > 256 | inactive | 16 (≈ 6.37 µM) | 16 (≈ 6.37 µM) | 
CC[C@H](C)[C@H](NC(=O)[C@H](CCCNC(=N)N)NC(=O)[C@H](CCCNC(=N)N)NC(=O)[C@H](CC(C)C)NC(=O)[C@H](Cc1ccccc1)NC(=O)[C@@H](NC(=O)[C@H](CCCNC(=N)N)NC(=O)[C@H](CCSC)NC(=O)[C@@H](NC(=O)[C@H](CCCCN)NC(=O)[C@@H](N)CCCCN)[C@@H](C)CC)[C@@H](C)O)C(=O)N[C@@H](CO)C(=O)N[C@@H](CCCCN)C(=O)N[C@@H](CC(=O)O)C(=O)N[C@H](C(=O)N[C@@H](CC(C)C)C(=O)N[C@H](C(=O)NCC(=O)N[C@@H](CCCCN)C(=O)N[C@@H](CCCCN)C(N)=O)[C@@H](C)O)[C@@H](C)CC (H-KKIMRTFLRRISKDILTGKK-NH2) | 128 (≈ 52.6 µM) | 128 (≈ 52.6 µM) | 32 (≈ 13.2 µM) | 32 (≈ 13.2 µM) | 16 (≈ 6.58 µM) | 64 (≈ 26.3 µM) | 8 (≈ 3.29 µM) | < 5 | > 256 | 64 (≈ 26.3 µM) | 16 (≈ 6.58 µM) | 8 (≈ 3.29 µM) | 4 (≈ 1.64 µM) | > 256 | > 256 | inactive | 32 (≈ 13.2 µM) | 32 (≈ 13.2 µM) | 
CC[C@H](C)[C@H](NC(=O)[C@H](CCCNC(=N)N)NC(=O)[C@H](CCCCN)NC(=O)[C@H](CO)NC(=O)[C@@H](NC(=O)CNC(=O)[C@H](CCCNC(=N)N)NC(=O)[C@H](CC(C)C)NC(=O)[C@@H](NC(=O)[C@@H](N)CCCCN)[C@@H](C)CC)C(C)C)C(=O)N[C@@H](CC(C)C)C(=O)N[C@H](C(=O)NCC(=O)N[C@@H](CCCCN)C(=O)N[C@@H](CCCCN)C(N)=O)[C@@H](C)O (H-KILRGVSKRILTGKK-NH2) | 128 (≈ 75.5 µM) | 128 (≈ 75.5 µM) | 100 (≈ 59 µM) | 50 (≈ 29.5 µM) |  | > 128 | > 128 | < 5 |  | > 256 | > 256 | > 64 | > 64 | > 256 | > 256 | inactive | > 128 | > 128 | 
